Experimental data published in article PMC6273692, “Binding Mode and Selectivity of Steroids towards Glucose-6-phosphate Dehydrogenase from the Pathogen Trypanosoma cruzi” (Molecules, 2016).
Read-outs that look alike come from different tables or passages of the source.

Assays:
human G6PDH = settings: cited from earlier work; for increase of inhibition of human G6PDH compared to the parental scaffold (EA): vs EA; for IC50: read-out: IC50 (anti-human G6PDH activity)
TcG6PDH wildtype = TcG6PDH wildtype (Trypanosoma cruzi, UniProt Q1WBU6); assay: Inhibitor assay with wildtype TcG6PDH (NADPH formation at 340 nm); format: biochemical; settings: for activity at 30 µM: read-out: G6PDH Activity [%] ± SD at 30 µM Compound; for increase of potency towards the parasite enzyme compared to the parental scaffold (EA): vs EA; for inhibition at 30 µM: read-out: inhibition at 30 μM compound
WT TcG6PDH = assay: Kinetic assay of WT TcG6PDH with substrates
Description: G6PDH activity was determined at ~25 °C by monitoring NADPH (ε340 = 6220 M^−1·cm^−1) formation at 340 nm. All assays were performed in buffer B (50 mM Tris pH 7.5, 5 mM MgCl2) in a final reaction volume of 150 µL and started by addition of glucose-6-phosphate (G6P). For WT TcG6PDH, the Michaelis’ constants (KM) and the maximum initial velocity (Vmax) were determined varying reciprocally the substrate (10, 50, 200, 1000 and 5000 µM G6P) and coenzyme (5, 10, 50, 250 and 625 µM NADP^+) concentrations. For the mutants, the kinetic characterization was performed at a fixed saturating concentration of the corresponding co-substrate (i.e., 6 mM G6P and 700 µM NADP^+) and varying concentrations of the substrate (25, 50, 70, 100, 250, 350, 500 and 700 µM NADP^+, and 0.005, 0.025, 0.05, 0.25, 0.65, 1, 2.5 and 5 mM G6P). […] The first 30 s of the reaction were used to calculate initial velocities that were normalized by the corresponding enzyme concentration in the assay. All measurements were performed in triplicate using a Cary 50 Bio spectrophotometer (Agilent Technologies, Santa Clara, CA, USA). The initial rates were determined with the Origin Pro 8.0 software (OriginLab Corporation, Northampton, MA, USA), and the apparent kinetic constants were calculated by nonlinear regression using the GraphPad Prism 5.0 software (GraphPad Inc., San Diego, CA, USA). The data were fitted to the Cleland or Michaelis-Menten equation to obtain the corresponding kinetic parameters.

T. cruzi G6PDH (TcG6PDH) = settings: cited from earlier work
G6PDH from T. brucei = settings: cited from earlier work
[1] = system: African trypanosomes expressing an ectopic copy of L. mexicana G6PDH; settings: endogenous G6PDH deficient; cited from earlier work

Chain of TcG6PDH wildtype (Q1WBU6 entry or part of it): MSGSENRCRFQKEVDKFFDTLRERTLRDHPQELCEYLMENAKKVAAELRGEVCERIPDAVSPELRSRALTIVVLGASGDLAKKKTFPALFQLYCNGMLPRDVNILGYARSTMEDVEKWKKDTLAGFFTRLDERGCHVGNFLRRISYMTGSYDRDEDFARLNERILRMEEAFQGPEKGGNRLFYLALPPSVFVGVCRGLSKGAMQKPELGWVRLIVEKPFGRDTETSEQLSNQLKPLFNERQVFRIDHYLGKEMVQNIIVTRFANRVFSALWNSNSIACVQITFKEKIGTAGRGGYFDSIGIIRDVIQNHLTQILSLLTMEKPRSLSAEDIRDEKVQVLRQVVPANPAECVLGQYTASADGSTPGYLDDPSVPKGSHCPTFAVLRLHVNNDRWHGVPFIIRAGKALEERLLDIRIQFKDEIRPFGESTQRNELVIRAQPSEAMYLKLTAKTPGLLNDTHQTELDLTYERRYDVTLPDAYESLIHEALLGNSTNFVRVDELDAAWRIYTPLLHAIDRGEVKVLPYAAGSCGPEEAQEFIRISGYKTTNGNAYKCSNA

Q: Which “increase of inhibition of human G6PDH compared to the parental scaffold (EA)” value (human G6PDH) does the source give for `CCNC(=O)N[C@H]1CC[C@@]2(C)C(CCC3C2CC[C@]2(C)C(=O)CCC32)C1` (stereo partly shown) [Compound 1] here?
A: ~ 10 fold

Q: And the IC50 (TcG6PDH wildtype)?
A: 1500 nM

Q: What about the activity at 30 µM (TcG6PDH wildtype) of the same compound?
A: 7 ± 1%

Q: What about the “increase of potency towards the parasite enzyme compared to the parental scaffold (EA)” value (TcG6PDH wildtype) of the same compound?
A: ≤ 2 fold

Q: Which “increase of inhibition of human G6PDH compared to the parental scaffold (EA)” value (human G6PDH) does the source give for `C[C@]12CC[C@H](NS(N)(=O)=O)CC1CCC1C2CC[C@]2(C)C(=O)CCC12` (stereo partly shown) [Compound 2] here?
A: ~ 10 fold

Q: And the IC50 (TcG6PDH wildtype)?
A: 2200 nM

Q: And the activity at 30 µM (TcG6PDH wildtype)?
A: 9 ± 1%

Q: What about the “increase of potency towards the parasite enzyme compared to the parental scaffold (EA)” value (TcG6PDH wildtype) of the same compound?
A: ≤ 2 fold

Q: With `C[C@]12CC[C@H](NS(N)(=O)=O)CC1CCC1C2CC[C@@]2(C)C1CC[C@@H]2C(=O)CO` (stereo partly shown) [Compound 3] as the compound, how does the IC50 (human G6PDH) read?
A: ~2000 nM

Q: And the activity at 30 µM (TcG6PDH wildtype)?
A: 30 ± 2%

Q: And the inhibition at 30 µM (TcG6PDH wildtype)?
A: 60 to 70%

Q: What does the source list for `C[C@]12CC[C@H](O)CC1CCC1C2CC[C@@]2(C)C1CC[C@@H]2C(=O)CO` (stereo partly shown) [Compound 4]?
A: IC50 (human G6PDH): ~2000 nM; activity at 30 µM (TcG6PDH wildtype): 43 ± 2%; inhibition at 30 µM (TcG6PDH wildtype): 60 to 70%

Q: Which “activity against human G6PDH relative to TcG6PDH” value (human G6PDH) does the source give for `C[C@]12CC[C@H](O)CC1CCC1C2CC[C@]2(C)C(=O)C(Br)CC12` (stereo partly shown) [Compound 16Br-EA, 16-bromo epiandrosterone, reference compound] here?
A: almost two orders of magnitude less active

Q: For `O=C[C@H](O)[C@@H](O)[C@H](O)[C@H](O)COP(=O)(O)O` [Compound G6P, glucose-6-phosphate], which Km (WT TcG6PDH; read-out: KM G6P, apparent, triplicate) is on record?
A: 77 ± 20 µM

Q: And the kcat (WT TcG6PDH; varying G6P)?
A: 62 ± 3 s⁻¹

Q: With `C[C@]12CC[C@H](O)CC1=CC[C@@H]1[C@@H]2CC[C@]2(C)C(=O)CC[C@@H]12` [DHEA, dehydroepiandrosterone] as the compound, how does the Ki (human G6PDH) read?
A: 6000 to 9000 nM

Q: And the Ki (T. cruzi G6PDH (TcG6PDH))?
A: 2600 to 25000 nM

Q: What about the Ki (G6PDH from T. brucei) of the same compound?
A: 1700 nM

Q: With `C[C@]12CC[C@H](O)C[C@@H]1CC[C@@H]1[C@@H]2CC[C@]2(C)C(=O)CC[C@@H]12` [EA, epiandrosterone, reference compound] as the compound, how does the Ki (human G6PDH) read?
A: 3000 nM

Q: What about the IC50 (TcG6PDH wildtype) of the same compound?
A: 3000 ± 400 nM

Q: What about the activity at 30 µM (TcG6PDH wildtype) of the same compound?
A: 12 ± 2%

Q: What about the Ki (T. cruzi G6PDH (TcG6PDH)) of the same compound?
A: 1000 to 5600 nM

Q: And the “sensitivity of trypanosomes expressing L. mexicana G6PDH” value [1]?
A: resistant

Q: And the Ki (G6PDH from T. brucei)?
A: 500 nM

Q: Which Km (WT TcG6PDH; read-out: KM NADP^+, apparent, triplicate) does the source give for `NC(=O)c1ccc[n+]([C@@H]2O[C@H](COP(=O)([O-])OP(=O)(O)OC[C@H]3O[C@@H](n4cnc5c(N)ncnc54)[C@H](OP(=O)(O)O)[C@@H]3O)[C@@H](O)[C@H]2O)c1` [NADP^+] here?
A: 16 ± 3 µM

Q: What about the kcat (WT TcG6PDH; varying NADP+) of the same compound?
A: 52 ± 2 s⁻¹
